Laboratory results reported in patent US20260226222A1, “PROCESS FOR MANUFACTURING POLYURETHANE FOAM” (Galata Chemicals, LLC, priority 2023, published 2026).
Several values for one entry are separate records, joined by “and”; a condition that tells them apart may be missing. Equal entries are not always repeated.

Assay: Catalytic Activity Test (Dielectric Polarization Analyzer SubCASE HT)
Settings: same amount of tin (0.029 g); 30° C.
Protocol: Comparative catalytic activity of selected tin-containing catalysts was determined with the use of Dielectric Polarization Analyzer SubCASE HT (Format Messtechnik GmbH) that converts the dielectric conductivity signal to Pot Life and Cure Time (among others) of curing polymer systems. Pot Life was determined by the instrument as time between the mixing the reactants and beginning of the polymerization process at 10% reduction in dielectrical properties from the initial point. Cure Time is calculated as the time between the maximum cure rate point and the point at which the maximum rate is slowed down by 25%. The polyurethane test formulation used for screening catalytic activity of the selected tin-containing catalysts with the use of SubCASE HT is shown in Table 1.
The selected catalysts were tested at loadings of the same tin content. The following catalysts were tested for comparative catalytic activity: stannous di-2-ethylhexanoate, stannous dineodecanoate, stannous diricinoleate, dimethyltin dioleate and dimethyltin dineodecanoate. A catalyst was added to the polyol and mixed at 400 rpm until thoroughly dispersed. IPDI was then added to the polyol/catalyst mixture and mixed for 20 seconds at 400 rpm before introducing the mixture into the SubCASE HT instrument and starting the kinetics measurements. The instrument temperature was set to 30° C. Results of the comparative catalytic activity test for Pot Life and Cure Time of the selected tin-containing catalysts are in Table 2.
For Dimethyltin dineodecanoate, the “Cure Time” value was 695 s, the “Cure Time-Pot Life” value was 321 s and the “Pot Life” value was 374 s. In the case of Dimethyltin dioleate, the “Cure Time” value is reported as 1135 s, the “Cure Time-Pot Life” value is reported as 533 s and the “Pot Life” value is reported as 602 s. With Dimethyltin diricinoleate the “Cure Time” value was 928 s, the “Cure Time-Pot Life” value was 457 s and the “Pot Life” value was 471 s. With Stannous di(2-ethylhexanoate) the “Cure Time” value was 420 s, the “Cure Time-Pot Life” value was 109 s and the “Pot Life” value was 311 s. In the case of Stannous dineodecanoate, the “Cure Time” value is reported as 741 s, the “Cure Time-Pot Life” value is reported as 337 s and the “Pot Life” value is reported as 404 s. In the case of Stannous diricinoleate, the “Cure Time” value is reported as 895 s, the “Cure Time-Pot Life” value is reported as 335 s and the “Pot Life” value is reported as 560 s.

Same assay, conditions: same tin amount
For Dimethyltin dineodecanoate, the “Cure Time” value was 695 s and the “Pot Life” value was 374 s. For Dimethyltin dioleate, the “Pot Life” value was 602 s. With Dimethyltin diricinoleate the “Cure Time” value was 928 s and the “Pot Life” value was 471 s. For Stannous di(2-ethylhexanoate), the “Pot Life” value was 311 s. With Stannous dineodecanoate the “Cure Time” value was 741 s and the “Pot Life” value was 404 s and 471 s. For Stannous diricinoleate, the “Cure Time” value was 895 s and the “Pot Life” value was 560 s.

Assay: not given
Settings: catalyst 0.23 pphp
Protocol: In addition to the above Examples carried out in the screening polyurethane formulation, actual flexible polyurethane foam specimens were prepared and tested for their performance characteristics.
The flexible polyurethane foam formulation is in Table 4.
Testing results of the prepared foams are in Table 5.
Dimethyltin dineodecanoate showed a Cream time of 18 s. Compound Dimethyltin diricinoleate has a Cream time of 17 s. With Stannous di(2-ethylhexanoate) the Cream time was 17 s. Work on Stannous dineodecanoate yielded a Cream time of 15 s.

Same assay, conditions: foam
In the case of Dimethyltin dineodecanoate, the elongation is reported as 107% and the “increase of elongation compared to Example Control 1 and Example Control 2” value is reported as “about 31%”. Stannous dineodecanoate gave an elongation of 97%.

Same assay, conditions: foam; catalyst 0.23 pphp
For Dimethyltin dineodecanoate, the “% Elongation” value was 107%, the Density was 1.37 lbs/ft3 and the Permeability was 0.3 scfm. It also gave a Resiliency of 20% and a Tensile of 15 psi. With Dimethyltin diricinoleate the “% Elongation” value was 93%, the Density was 1.39 lbs/ft3 and the Permeability was 4.4 scfm. The Resiliency was 35% and the Tensile was 14 psi. With Stannous dineodecanoate the “% Elongation” value was 97%, the Density was 1.32 lbs/ft3 and the Permeability was 0.6 scfm. For the same compound, the Resiliency was 28% and the Tensile was 14 psi.

Assay: not given
Settings: current; cited from earlier work
In the case of CC(=O)[O-].CC(=O)[O-].[CH3][Sn+2][CH3] [Dimethyltin diacetate], the CMR classification is given as “reprotoxicants of category 2”. For Dibutyltin dilaurate, the CMR classification is listed as “reprotoxicants of category 1B”. In the case of Dimethyltin dineodecanoate, the CMR classification is given as “reprotoxicants of category 2”. For Dimethyltin dioleate, the CMR classification is given as “reprotoxicants of category 2”. For Dimethyltin diricinoleate, the CMR classification is listed as “reprotoxicants of category 2”. In the case of Dioctyltin dilaurate, the CMR classification is listed as “reprotoxicants of category 1B”. In the case of Stannous dineodecanoate, the CMR classification is listed as “non-CMR”. For Stannous diricinoleate, the CMR classification is given as “non-CMR”.

Same assay, conditions: mutagenicity; cited from earlier work
For Dibutyltin dilaurate, the “CMR Classification (mutagen)” value is listed as “Mutagen of Cat. 2”.

Same assay, conditions: reproductive toxicity / CMR status, current or as in Comments; cited from earlier work
In the case of CC(=O)[O-].CC(=O)[O-].[CH3][Sn+2][CH3] [Dimethyltin diacetate], the “CMR classification” value is listed as “Reprotox. of Cat. 2”. In the case of Dibutyltin dilaurate, the “CMR classification” value is listed as “Reprotox. of Cat. 1B”. In the case of Dimethyltin dineodecanoate, the “CMR classification” value is listed as “Reprotox. of Cat. 2”. For Dimethyltin dioleate, the “CMR classification” value is given as “Reprotox. of Cat. 2”. In the case of Dimethyltin diricinoleate, the “CMR classification” value is listed as “Reprotox. of Cat. 2”. In the case of Dioctyltin dilaurate, the “CMR classification” value is given as “Reprotox. of Cat. 1B”. For Stannous dineodecanoate, the “CMR classification” value is given as “Not CMR”. In the case of Stannous diricinoleate, the “CMR classification” value is given as “Not CMR”.
